Earlier results in US20120283223A1, “CEREBRAL NERVE CELL NEOGENESIS AGENT” (priority 2010, published 2012).

Tested on: cerebral nerve cells
Conditions: in 3 to 4 weeks; Non-Patent Literature 1

Structure (SMILES): CNCCC(Oc1ccc(C(F)(F)F)cc1)c1ccccc1 (stereo not shown) [fluoxetine]
- number of cerebral nerve cells: increases
